Measurements reported in patent publication US8476303B2, “N-aminopyrrolylmethyltetrahydropyridines as anti-cancer agents” (Florida A&M University Board of Trustees, priority 2011, dated 2013).

Assays:
Format in all cases: cell-based
Ishikawa cells = experiment: CELLTITER-GLO luminescent cell viability assay, Ishikawa; conditions: 72 h at 37° C.
Method: (§1) The derivatives were examined for their cytotoxic effects on MCF-7 estrogen receptor-positive breast cancer cells, MDA-MB-231 estrogen receptor-negative breast cancer cell line, and Ishikawa cells, using the CELLTITER-GLO (CTG)® luminescent cell viability assay. All the compounds are tested in the three cell lines. Different concentration of compounds, ranging from about 0.01 nM to about 100,000 nM were delivered to 5×10^3 cells per well, which were then incubated for three days at 37° C., followed by the CTG assay.
(§2) Compounds Redda-GM-2-50, Redda-GM-2-55, and Redda-GM-2-58 were tested for their cytotoxic effects on MCF-7 estrogen receptor-positive breast cancer cells, MDA-MB-231 estrogen receptor-negative breast cancer cell line, and Ishikawa cells, using the CELLTITER-GLO® luminescent cell viability assay (Promega, Madison, Wis.) following the manufacturer's instruction.
(§3) CELLTITER-GLO® is a homogeneous method based on the quantification of ATP, which is an indicator of metabolically active cells. In this assay, the number of viable cells in culture is determined based on the quantification of ATP present, which signals the presence of metabolically active cells. Damaged cells are not detected as the ATP leaked from these cells is quickly consumed by ATPases that are also released upon damage). The amount of ATP is determined using a system based on luciferase and D-luciferin resulting in light generation.
(§4) The cell lines were plated in 13, 96 well plates at a density of 5000 cells/well in total volumes of 50 μL in phenol-red free medium and incubated for overnight. […]
(§5) Drug-exposed cells were incubated or 72 h at 37° C. in a 5% CO2 incubator, after which the plates were removed for CELLTITER-GLO® assay and equilibrated at room temperature for 30 min. […] Luminescence results were read on TriLux Luminometer. […] Data were expressed as percentage of untreated control (i.e. treatment value-blank/vehicle value blank), mean±SE for three replications.

[1] = system: MCF-7 estrogen receptor-positive breast cancer cells; experiment: CELLTITER-GLO luminescent cell viability assay, MCF-7; conditions: MCF-7 cells, 72 h at 37° C.
Method: as §1, §2, §3, §4, §5

[2] = system: MDA-MB-231 estrogen receptor-negative breast cancer cell line; experiment: CELLTITER-GLO luminescent cell viability assay, MDA-MB-231; conditions: MDA-MB-231 cells, 72 h at 37° C.
Method: as §1, §2, §3, §4, §5

IC50 [1] [µM] | IC50 [2] [µM] | Substance | IC50 (Ishikawa cells) [µM]
49 | 53 | 3-((1H-pyrrol-1-yl)methyl)-1-(4-methoxyphenylsulfonamido)pyridinium Ylide [Redda-GM-2-58] | 28
47 | 44 | 3-((1H-pyrrol-1-yl)methyl)-1-(phenylsulfonimido)pyridinium Ylide [Redda-GM-2-50] | 28
31.8 | 83.6 | 3-((1H-pyrrol-1-yl)methyl)-1-(4-methylphenylsulfonamido)pyridinium Ylide [Redda-GM-2-55] | 78.5
